# Data: patent publication US7560597B2, “2′,4′-dichloro-biphenyl-4-yl-hydroxy-ketones and related compounds and their use as therapeutic agents” (The University Court of the University of Aberdeen, priority 2007, dated 2009)
# “Also recorded” adds a separate entry of the source.
# Key:
# [1] = test system: macrophage cell line J774; assay: Alamar Blue macrophage J774 viability assay; format: cell-based; conditions: Mus musculus, J774, 72 h, 72 hours culture with compound
# Method: Initial screening of candidate compounds was performed using viability assays on cultures of the macrophage cell line J774, which have been used before as a model system for osteoclast survival (see, e.g., Luckman et al., 1998). The assays are based on the survival of the J774 macrophage cell line; macrophages are closely related to osteoclasts, and contain similar high levels of esterase activity.
# J774 cells were plated at 10^4 cells per well in 150 μL αMEM (α Modified Eagle Medium) in 96-well plates and grown overnight. The next day, test compounds were added to the cultures, and cultures were continued for another 72 hours. At the end of the culture period, cell survival was determined using an Alamar Blue assay as previously described (see, e.g., Nociari et al., 1998).
# Alamar Blue is an oxidation-reduction sensitive indicator. The dye itself is in the oxidised state, which is blue and non-fluorescent. The dye can accept electrons from reducing species, such as NADPH and FADH, to form a reduced dye species, which is red and fluorescent. Thus the transformation from oxidised form to reduced form can be measured by fluorimetric or colourimetric means. For fluorescence measurements, 530-560 nm excitation and 590 nm emission wavelengths are typically used. For colourimetric measurements, absorbance is measured at 570 nm (reduced form) and 600 nm (oxidised form) and a simple calculation performed to determine the relative quantities of the two species.
# A high ratio of the reducing species, NADPH and FADH, to the corresponding oxidised species, NADP and FAD, is an indicator that cells are proliferating and viable. A low ratio indicates cells that are quiescent or non-viable.
# Briefly, Alamar Blue (Biosource International) was added undiluted to the each well (1:10 v/v, 15 μL). The plate was incubated at 37° C. for 3-4 hours and the fluorescence was measured at 590 nm, with a 25 nm bandwidth. A high reading indicated cells with normal viability, and a low reading indicated cells that have been damaged and are no longer proliferating normally. The controls gave a high fluorescence reading, indicating a high number of live, healthy cells. A potent test compound gave a low fluorescence reading. The average results for each test compound (n=5) were expressed as a percent (%) of the average control value.
# Addition of Compounds. All of the compounds studied were made up as 100 mM solutions in DMSO. These stock solutions were then diluted 100 or 1000× in culture medium (αMEM). From these 1 mM or 100 μM solutions, convenient quantities (3-15 μL) were added directly to the wells so as to give the desired final compound concentration.
# [2] = test system: mouse collagen-induced arthritis model; assay: Collagen-induced arthritis model, joint inflammation scoring; format: in vivo; conditions: for total joint score (sum of joint inflammation scores of the study group): 21-day period, n=10, untreated group 47, FIG. 3
# Method: Collagen-induced arthritis (CIA) was induced in 8-week old male DBA/1 mice, by intradermal injection of 100 μL of chicken collagen type II (2 mg/mL) suspended in complete Freund's adjuvant supplemented with 2 mg/mL devitalised M. Tuberculosis into the base of the tail. This will lead to joint inflammation in >80% of the animals within 4 weeks. Treatment with ABD328 (10 mg/kg/day, orally or i.p., delivered in corn oil) was started when joint inflammation became apparent in the first animals (in this experiment 15 days after injection), and the experiment was terminated 3 weeks later. For each animal, the scores for all four joints were added (maximal score=12).
# Compound ABD328 (dosage 10 mg/kg, i.p. or oral) was investigated in vivo using the collagen-induced arthritis model, assessed using joint inflammation severity scoring, as described above.
# [3] = In vivo pharmacokinetics: serum levels after oral dosage (HPLC/UV); parameters: species or system rat; conditions: rats, 10 mg/kg oral
# Method: Absorption and metabolic stability were studied using an in vivo pharmacokinetics assay. Drug levels assessed using HPLC/UV.
# Following overnight starvation, male Wistar rats (250 g) were given a bolus gavage of 500 μL of a solution of test compound in corn oil (5 mg/ml). Blood samples (1 mL, whole blood) were taken at various time intervals and the serum collected following centrifugation. Samples were frozen until required for analysis.
# Ethyl acetate (4 mL) was added to the defrosted serum and the samples mixed for 20 minutes. Following centrifugation, the ethyl acetate layer was collected and evaporated under a stream of nitrogen. The residue was reconstituted in mobile phase and 20 μL injected onto the chromatogram.
# Standard calibration curves were prepared for each of the test compounds and were linear in the range of 1 ng/mL to 250 ng/mL.
# • Column: HIRPB C18 (150×4.6 mm). • Mobile phase: 60% 25 mM ammonium acetate, pH 4; 40% acetonitrile. • Flow rate: 1 mL/minute. • Detection: Peaks detected by UV absorption at λmax in the range of 240-275 nm.
# Serum levels of compounds ABD328, ABD345 and ABD430 following oral dosage (10 mg/kg) over the course of 60 minutes were investigated in vivo in rats using an HPLC/UV detection system, as described above.
# [4] = test system: mouse-ovariectomy bone loss model; assay: Ovariectomy induced bone loss (pQCT trabecular bone density); format: in vivo; conditions: OVX mice, 20 mg/kg orally
# Method: Animals. Female 9 week-old C57/BL6 mice were used. Animals were housed in a designated animal facility and routinely maintained on a 12 hour:12 hour light:dark cycle and given ad libitum access to food and water.
# Ovariectomy induced bone loss. Bilateral ovariectomy (Ovx) was performed under general anaesthesia. Sham ovariectomy (Sham) was similarly performed but with externalisation and replacement of the ovaries. Animals were given a daily injection of (a) test compound (e.g., 10 mg/kg) in vehicle (corn oil), or (b) vehicle (corn oil). After 21 days, the animals were killed, and the tibial bones were dissected and used for bone mineral density measurements and histomorphometric analysis (see below).
# Bone Mineral Measurements. Measurements of bone mineral density (BMD) at the left proximal tibial metaphysis were determined by peripheral quantitative computed tomography (pQCT) using an XCT Research M bone densitometer with a voxel size of 70 μm and analysis software version 5.1.4 (Stratec Medizintechnik, Pforzheim, Germany). […]
# Statistical Analyses. […] Significant differences between groups were determined by ANOVA followed by post-hoc testing using Dunnet's post-test. […]
# Compounds ABD68, ABD328 and ABD355 (dosage 20 mg/kg, orally) were investigated in vivo using ovariectomy induced bone loss assessed using peripheral quantitative computed tomography, as described above.
# [5] = Table 3 (variation of W), J774 cells
structure (smiles),measurement,setting,value
"OCCCCC/C(=N\O)c1ccc(-c2ccc(Cl)cc2Cl)cc1 [ABD468, 1-(2′,4′-Dichloro-biphenyl-4-yl)-6-hydroxy-hexan-1-one oxime]",IC50,[1]; [5],7 ± 2 µM
"OCCCCCC(O)c1ccc(-c2ccc(Cl)cc2Cl)cc1 (racemic) [ABD300, (R,S)-1-(2′,4′-Dichloro-biphenyl-4-yl)-hexane-1,6-diol]",IC50,[1]; [5],8 ± 2 µM
"O=C(CCCCCO)c1ccc(-c2ccc(Cl)cc2Cl)cc1 [ABD328, 1-(2′,4′-Dichloro-biphenyl-4-yl)-6-hydroxy-hexan-1-one]",total joint score (sum of joint inflammation scores of the study group),[2]; 10 mg/kg/day i.p.,5
same,total joint score (sum of joint inflammation scores of the study group),[2]; 10 mg/kg/day orally,13
same,effect on collagen-induced arthritis / inflammation (in words),"[2]; 10 mg/kg/day, i.p. or oral",fully reverse the effects of collagen-induced arthritis; also recorded: prevents inflammation
same,IC50,"[1]; Table 2, J774 cells",12 ± 2 µM
same,IC50,[1]; [5],11 ± 3 µM
same,metabolic stability (in words),[3]; in vivo serum levels,good degree of metabolic stability
same,"oral absorption (blood serum levels), in words","[3]; over 60 minutes, FIG. 2",well absorbed
same,effect on ovariectomy-induced bone loss (in words),[4]; 20 mg/kg,fully reverse the effects of ovariectomy-induced bone loss; also recorded: fully prevents bone loss
same,increase in trabecular bone density,"[4]; relative to the control group (OVX no drug: 34% decrease), FIG. 1",6%
"OCCCCC[C@@H](O)c1ccc(-c2ccc(Cl)cc2Cl)cc1 [ABD511, (R)-1-(2′,4′-Dichloro-biphenyl-4-yl)-hexane-1,6-diol]",IC50,[1]; [5],4 ± 2 µM
"OCCCCC[C@H](O)c1ccc(-c2ccc(Cl)cc2Cl)cc1 [ABD513, (S)-1-(2′,4′-Dichloro-biphenyl-4-yl)-hexane-1,6-diol]",IC50,[1]; [5],11 ± 4 µM
